Source: publication PMC5454378, “Histone deacetylase 10 structure and molecular function as a polyamine deacetylase” (Nature Communications, 2017)

Experiments:
Type in all cases: biochemical
hHDAC10 [1] = target: T1, hHDAC10 (Homo sapiens, UniProt Q969S8); test: LC–MS steady-state kinetics
T1 construct: gene HDAC10; full-length, residues 2–669, MBP fusion
T1 sequence (Q969S8 2-669): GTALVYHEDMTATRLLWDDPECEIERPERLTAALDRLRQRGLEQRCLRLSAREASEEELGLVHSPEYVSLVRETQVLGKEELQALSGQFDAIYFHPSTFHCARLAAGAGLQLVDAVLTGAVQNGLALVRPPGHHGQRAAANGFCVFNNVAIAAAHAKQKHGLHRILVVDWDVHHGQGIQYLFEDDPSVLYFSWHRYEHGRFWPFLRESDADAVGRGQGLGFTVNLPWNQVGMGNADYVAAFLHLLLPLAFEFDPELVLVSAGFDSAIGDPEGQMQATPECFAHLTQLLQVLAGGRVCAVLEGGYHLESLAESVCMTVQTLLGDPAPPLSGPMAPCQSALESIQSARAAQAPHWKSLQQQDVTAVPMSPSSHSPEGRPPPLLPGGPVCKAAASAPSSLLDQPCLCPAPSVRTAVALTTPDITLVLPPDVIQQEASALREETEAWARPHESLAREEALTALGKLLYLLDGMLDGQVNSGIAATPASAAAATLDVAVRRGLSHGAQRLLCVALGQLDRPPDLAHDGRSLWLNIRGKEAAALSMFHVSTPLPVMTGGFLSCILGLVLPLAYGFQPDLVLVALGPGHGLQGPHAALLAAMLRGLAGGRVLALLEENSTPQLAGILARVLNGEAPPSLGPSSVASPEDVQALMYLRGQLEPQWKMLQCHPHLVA

zHDAC10 [2] = target: T2, zHDAC10 (Danio rerio, UniProt F1QCV2); test: LC–MS steady-state kinetics
T2 construct: gene hdac10; full-length, residues 2–675
T2 sequence (F1QCV2 2-675): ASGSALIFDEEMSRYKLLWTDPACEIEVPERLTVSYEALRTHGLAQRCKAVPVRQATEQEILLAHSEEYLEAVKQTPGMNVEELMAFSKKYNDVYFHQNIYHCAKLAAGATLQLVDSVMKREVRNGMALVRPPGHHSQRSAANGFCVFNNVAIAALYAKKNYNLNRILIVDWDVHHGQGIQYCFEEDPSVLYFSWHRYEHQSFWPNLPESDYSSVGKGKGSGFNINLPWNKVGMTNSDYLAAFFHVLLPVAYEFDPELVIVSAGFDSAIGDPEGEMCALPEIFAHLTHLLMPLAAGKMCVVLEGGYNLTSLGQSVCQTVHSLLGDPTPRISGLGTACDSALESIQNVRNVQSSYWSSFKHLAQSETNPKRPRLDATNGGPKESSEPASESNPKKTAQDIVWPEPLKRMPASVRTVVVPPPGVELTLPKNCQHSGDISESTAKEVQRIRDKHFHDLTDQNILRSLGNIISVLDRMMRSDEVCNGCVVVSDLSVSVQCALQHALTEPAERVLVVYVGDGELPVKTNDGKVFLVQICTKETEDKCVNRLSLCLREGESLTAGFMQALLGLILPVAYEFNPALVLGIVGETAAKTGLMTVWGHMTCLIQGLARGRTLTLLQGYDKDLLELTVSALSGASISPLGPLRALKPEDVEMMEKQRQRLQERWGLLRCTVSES

zHDAC10 [3] = target: T2, zHDAC10; test: LC–MS steady-state kinetics (kcat/KM)
hHDAC10 [4] = target: T1, hHDAC10; test: LC–MS steady-state kinetics (kcat/KM)
zHDAC10 [5] = target: T2, zHDAC10; test: LC–MS deacetylase inhibition assay with N8-acetylspermidine; Ki by Cheng-Prusoff

Compound	LC-MS steady-state kinetics (hHDAC10 [1])	LC-MS steady-state kinetics (zHDAC10 [2])	further results
CC(=O)NCCCCN [AcPUT, acetylputrescine]	substantial catalytic activity was also observed with acetylcadaverine and acetylputrescine	substantial catalytic activity was also observed with acetylcadaverine and acetylputrescine	–
CC(=O)NCCCCCCCCN [AcDAO, N-(8-aminooctyl)acetamide]	–	also observed with acetylcadaverine and acetylputrescine, as well as N-(8-aminooctyl)acetamide	–
CC(=O)NCCCCCN [AcCAD, acetylcadaverine]	substantial catalytic activity was also observed with acetylcadaverine and acetylputrescine	substantial catalytic activity was also observed with acetylcadaverine and acetylputrescine	–
CC(=O)NCCCCNCCCN [N^8-AcSPD, N^8-acetylspermidine]	–	–	LC-MS steady-state kinetics (kcat/KM) (zHDAC10 [3]): 4,600±300 M^−1 s^−1; LC-MS steady-state kinetics (kcat/KM) (hHDAC10 [4]): 2,900±200 M^−1 s^−1
NCCCNCCCCCC(=O)C(F)(F)F [AAT, 7-[(3-aminopropyl)amino]-1,1,1-trifluoroheptan-2-one]	–	–	Ki (zHDAC10 [5]): 700 ± 200 nM
